Laboratory results taken from patent publication US8404898B2, “Integrated process for the preparation of polybenzimidazole precursors” (E I du Pont de Nemours and Company, priority 2008, dated 2013).

Test: solubility of TAT salt in water
Type: physicochemical
Settings: water at 25° C.
Protocol: The reaction mixture containing the precipitated TAT salt is then cooled to about 5° C. to about 15° C. and stirred, then filtered. The TAT salt is then washed 44. […] Using an agitated filter unit during the wash procedures can allow for a reduction of the wash volumes. Under such circumstances, using small amounts of cold (e.g., about 5° C.) water instead of the aqueous acid would be effective; cold water would be used because of lower solubility of the TAT salt in cold water versus, e.g., room temperature. For example, the solubility of TAT.4HCl in water at 25° C. is about 16 wt %.

solubility in water: about 16 wt %
SMILES: Cc1c(N)c(N)cc(N)c1N [TAT.4HCl, 2,3,5,6-tetraminotoluene]
